Results: paper PMC9967789, “Green Drug Discovery: Novel Fragment Space from the Biomass-Derived Molecule Dihydrolevoglucosenone (Cyrene^TM)” (Molecules, 2023)

Assays:
[1] = Nephelometry solubility in HBSS buffer containing 1% DMSO; type: physicochemical; conditions: for concentration up to which no signs of precipitation or aggregation are shown: in triplo
Experimental: Nephelometry was performed using NEPHELOstar Plus equipment (BMG LABTECH, Ortenberg, Germany). Kaolin was used as the internal standard, and compounds were added to HBSS buffer as DMSO stock solution to a final concentration of 1% DMSO and a total volume of 200 μL. Precipitation or aggregation was considered significant when average values exceeded three times the standard deviation of the blanks. Blank values were omitted if they exceeded three times the standard deviation of the 24 blanks that were measured on each 96-well plate. All compounds were tested in triplo, and wells of suspected outliers were visually inspected before omitting any outliers. Data were processed in Prism version 8.0 (GraphPad, San Diego, CA, USA).

[2] = cited from earlier work
[3] = Incubation experiment: fragment integrity by LCMS in HBSS buffer/1% DMSO; type: physicochemical; conditions: 10^−4 M in HBSS buffer/1% DMSO
Experimental: (§1) LCMS studies: A 10 mM solution in DMSO was diluted with HBSS buffer to 0.10 mM. Fragment integrity was measured by LCMS at regular intervals (not shown) up to 20 d in the dark at rt, or after 20 d of freezing. NMR studies: A 10 mM solution in DMSO-d6 was prepared. Fragment integrity was measured with ^1H NMR analysis at regular intervals (not shown) up to 20 d in the dark at rt, or after 20 d of freezing.

[4] = Incubation experiment: fragment integrity by 1H NMR in DMSO-d6; type: physicochemical; conditions: 10^−2 M in DMSO-d6, NMR, three weeks at room temperature or frozen
Experimental: as §1

[5] = design: method as in doi:10.1021/acssuschemeng.6b02115; conditions: cited from earlier work

O=C(NC1CC[C@H]2CO[C@@H]1O2)c1cccs1 (some centres unmarked) [Compound 9p]
concentration up to which no signs of precipitation or aggregation are shown [1]: 1000 µM

Cn1ccc(CNC2CC[C@H]3CO[C@@H]2O3)n1.O=C(O)CCC(=O)O (some centres unmarked) [Compound 8f]
concentration up to which no signs of precipitation or aggregation are shown [1]: 3200 µM

O=C1CC2COC(C1)O2 (centres unmarked) [iso-Cyrene]
concentration of solutions obtained in water ([2]; water): 10000 µM

O=S(=O)(NC1CC[C@H]2CO[C@@H]1O2)C1CC1 (some centres unmarked) [Compound 12f]
concentration up to which no signs of precipitation or aggregation are shown [1]: 320 µM

C1COC2(CCC3COC2O3)O1 (centres unmarked) [glycol acetal of Cyrene]
miscibility with water [2]: water-miscible

COc1ccc(C(=O)NC2CC[C@H]3CO[C@@H]2O3)cc1 (some centres unmarked) [Compound 9h]
reactivity on incubation in buffer ([3]; three weeks at room temperature or frozen): no or only minor reactivity | decomposition in DMSO [4]: no significant decomposition

O=C1CC[C@H]2CO[C@@H]1O2 [Cyrene, dihydrolevoglucosenone]
water solubility [2]: highly water-soluble | toxicity [5]: low toxicity

O=C(Nc1ccc(Cl)cc1)OC1CC[C@H]2CO[C@@H]1O2 (some centres unmarked) [Compound 7c]
concentration at which the precipitate/aggregate starts to form [1]: 10^−3 M | concentration up to which no signs of precipitation or aggregation are shown [1]: 320 µM

Cc1ccc(COC2CC[C@H]3CO[C@@H]2O3)cc1 (some centres unmarked) [Compound 5c]
concentration up to which no signs of precipitation or aggregation are shown [1]: 1000 µM

Clc1cccc(Cl)c1CNC1CC[C@H]2CO[C@@H]1O2 (some centres unmarked) [Compound 8h]
byproduct formed ([3]; three weeks at room temperature): ca. 2.5% | decomposition in DMSO [4]: no significant decomposition
